The source of these data is patent US20070048215A1, “Chemical compound and assay” (priority 2003, published 2007).

In general, IC50 refers to the concentration that gives 50% inhibition. Higher therefore signals a need for much substance. One may read the Kd as the concentration at which binding is half-saturated.

Structures are written as SMILES.

The target of data set [1] is T1, hERG-transfected HEK membranes (hERG channel) (Homo sapiens, UniProt Q12809). Briefly: biochemical.
Method: Protocol for HERG Binding Assay
(§1) 96-well polypropylene plates (Costar C3600)
GF/B Plate Coating Solution
0.3% (v/v) Polyethylenimine
(§2) GF/B filter plates are pre-soaked in coating solution for a minimum of 20 minutes before harvesting.
(§3) Membranes for use in the assay are prepared as follows:
(§4) The final pellet is prepared in serum-free medium and the packed cell volume (pcv) measured.
(§5) The cells are allowed to swell for a couple of minutes on ice then lysed using a Polytron tissue homogeniser set to 22,000 rpm. The cell suspension is held on ice and the Polytron is allowed to build up to speed, then turned off and allowed to cool for 30 seconds before repeating. Normally 3 bursts should be sufficient to completely lyse the cells. A sample is checked microscopically to ensure complete lysis and the process repeated if necessary.
(§6) The lysed membrane solution is carefully overlaid over the 41% cushion. Any debris that may be stuck to the sides is washed out of the Polytron tube with buffer. The ultra centrifuge tube is topped up with cold buffer to completely fill the tube (this prevents the tube from collapsing during centrifugation). Centrifugation is carried out at 28,000 rpm for 1 hour @ 4° C. using a SW-28 swing-out rotor with a brake to 800 rpm.
(§7) Membranes are seen as a white band at sucrose/buffer interphase. The top layer of the buffer is discarded and then all the membrane band is harvested with as little sucrose as possible and added to a fresh centrifuge tube. This is diluted and mixed well with at least 3 volumes of ice cold buffer containing protease inhibitor. Centrifugation is carried out at 23,000 rpm at 4° C. for 20 minutes with a break to zero.
(§8) The supernatant is discarded and the pellet resuspended in the assay buffer+protease inhibitors on ice at 1×10^8 cell equivalents/ml. This preparation is then aliquotted and frozen to −80° C. or lower. […]
(§9) 20 μL of 10 nM 3,7-Bis[2-(4-nitro[3,5-^3H]phenyl)ethyl]-3,7-diazabicyclo[3.3.1]nonane is added to a dry filter plate to determine the total radioactivity added to assay wells.
The target in data set [2] is T2, membranes from hERG-transfected HEK cells (hERG channel) (Homo sapiens, UniProt Q12809).
T2 construct: expressed in transfected cells; host or cells: HEK (human embryonic kidney) cells, membrane preparation
T2 sequence (Q12809 whole entry): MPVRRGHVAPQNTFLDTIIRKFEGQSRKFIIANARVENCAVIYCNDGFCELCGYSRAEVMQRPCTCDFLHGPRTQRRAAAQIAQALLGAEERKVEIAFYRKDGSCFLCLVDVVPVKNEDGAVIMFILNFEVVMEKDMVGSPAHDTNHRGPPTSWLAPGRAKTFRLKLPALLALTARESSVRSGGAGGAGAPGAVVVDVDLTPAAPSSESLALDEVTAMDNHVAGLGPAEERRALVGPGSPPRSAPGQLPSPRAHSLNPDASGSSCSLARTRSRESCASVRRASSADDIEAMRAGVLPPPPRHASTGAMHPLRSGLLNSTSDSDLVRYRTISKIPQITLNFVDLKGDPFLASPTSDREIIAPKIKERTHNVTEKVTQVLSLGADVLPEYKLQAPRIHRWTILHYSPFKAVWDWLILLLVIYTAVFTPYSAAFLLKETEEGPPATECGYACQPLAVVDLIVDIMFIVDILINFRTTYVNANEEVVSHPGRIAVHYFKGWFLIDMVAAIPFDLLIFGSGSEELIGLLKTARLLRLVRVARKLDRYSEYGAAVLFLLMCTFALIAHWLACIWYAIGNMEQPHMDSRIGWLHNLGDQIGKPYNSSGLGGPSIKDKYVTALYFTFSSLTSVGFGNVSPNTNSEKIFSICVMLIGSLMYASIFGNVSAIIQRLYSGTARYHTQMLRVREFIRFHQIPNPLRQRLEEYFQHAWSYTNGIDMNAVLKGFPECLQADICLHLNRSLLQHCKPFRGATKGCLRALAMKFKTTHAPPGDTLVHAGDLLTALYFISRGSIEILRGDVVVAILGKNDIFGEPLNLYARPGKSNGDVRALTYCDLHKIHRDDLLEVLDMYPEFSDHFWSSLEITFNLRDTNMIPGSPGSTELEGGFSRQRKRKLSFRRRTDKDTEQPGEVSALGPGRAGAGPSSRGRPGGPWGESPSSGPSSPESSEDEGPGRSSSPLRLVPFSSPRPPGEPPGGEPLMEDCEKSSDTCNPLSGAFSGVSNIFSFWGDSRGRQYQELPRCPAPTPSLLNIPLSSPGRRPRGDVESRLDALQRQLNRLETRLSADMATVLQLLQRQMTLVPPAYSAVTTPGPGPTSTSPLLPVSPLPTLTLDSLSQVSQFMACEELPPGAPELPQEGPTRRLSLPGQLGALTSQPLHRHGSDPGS
Nature of the data set: Binding of the radioligand to membranes from hERG-transfected HEK cells (Kd, Bmax). Particulars: mean±SEM, n=3. The method, then:
The batch of radiolabel used in these studies has a specific activity of 2941.5 GBq/mmol (79.5 Ci/mmol) and a concentration of 20 μM. The stock radiolabel is diluted 2000-fold to 10 nM and 20 μL added per well to a final assay volume of 200 μL to give a final radioligand concentration of 1 nM.

For data set [3], the target named is T1, hERG-transfected HEK membranes (hERG channel).
Method: Protocol for HERG Binding Assay
as §1
GF/B Plate Coating Solution
0.3% (v/v) Polyethylenimine
as §2, §3, §4, §5, §6, §7, §8, §9
Data set [4] concerns cardiac rapidly activating delayed rectifier K^+ current. Particulars: source of data: Chadwick 1993; G.Pig; cited from earlier work.
Data set [5] addresses T1, hERG-transfected HEK membranes (hERG channel). Particulars: published data of Finlayson et al.; cited from earlier work.

T1 sequence (Q12809 whole entry): as above

Consider `O=[N+]([O-])c1ccc(CCN2CC3CC(C2)CN(CCc2ccc([N+](=O)[O-])cc2)C3)cc1` [3,7-Bis[2-(4-nitrophenyl)ethyl]-3,7-diazabicyclo[3.3.1]nonane], for which the half-inhibitory concentration (IC50) in data set [1] is 3.16 nM.
`O=[N+]([O-])c1ccc(CCN2CC3CC(C2)CN(CCc2ccc([N+](=O)[O-])cc2)C3)cc1` [3,7-Bis[2-(4-nitro[3,5-^3H]phenyl)ethyl]-3,7-diazabicyclo[3.3.1]nonane]: in data set [2], the equilibrium dissociation constant (Kd) was determined as 0.91 ± 0.01 nM.
On to `[3H]c1cc(CCN2CC3CC(C2)CN(CCc2cc([3H])c([N+](=O)[O-])c([3H])c2)C3)cc([3H])c1[N+](=O)[O-]` [3,7-Bis[2-(4-nitro[3,5-^3H]phenyl)ethyl]-3,7-diazabicyclo[3.3.1]nonane], for which the Bmax in data set [2] came to 23.1±0.4 pmol/mg protein.
Regarding `CC(C)NC[C@@H](O)c1ccc(NS(C)(=O)=O)cc1` [d-Sotalol], the “pIC50, 3,7-Bis[2-(4-nitro[3,5-^3H]phenyl)ethyl]-3,7-diazabicyclo[3.3.1]nonane competition binding” value in data set [3] was 4.6. In addition, in data set [4], the “Electrophysiology pIC50” value was 4.1. In data set [5], the “pIC50, [^3H]-Dofetlide competition binding” value is recorded as 3.9.
